Usually solubility stands for how much of the substance goes into solution per volume. Higher therefore signals a readily soluble substance. In general, IC50 refers to the concentration needed to halve the response being measured.

Values after ≈ are worked out from the molar mass of the structure shown.

Data set [1] in a line: Solubility at pH 7. In kind it is physicochemical. The following applies: buffer.
For another data set, the system named is A2780. The data set can be described thus: Antiproliferative activity against human A2780 cells after 72 hrs by CellTiter-Glo luminescence assay. The following applies: A2780, 72 h. A general note: ATP-based viability assays read luminescence as a measure of living cells.
Data set [2] has as its target Cyclin-dependent kinase 2/cyclin A (Homo sapiens, UniProt P24941). Nature of the data set: Inhibition of human CDK2/cyclin A expressed in Escherichia coli BL21 by scintillation proximity assay. On the technique in general: In a scintillation proximity assay essentially only radioactivity close to the scintillant gives light.

`CN1CCC(C(=O)N2Cc3c(NC(=O)NCc4ccccc4)n[nH]c3C2(C)C)CC1` registered a solubility in data set [1] above 225 µM. Besides, the IC50 is 2680 nM with A2780 and 21 nM in data set [2].
For `CN1CCC(C(=O)N2Cc3c(NC(=O)C4CC4)n[nH]c3C2(C)C)CC1`, in that order: above 225 µM, 1420 nM and 15 nM.
With `CC1(C)c2[nH]nc(NC(=O)c3ccc(F)cc3)c2CN1C(=O)N1CCN(CCO)CC1`, the solubility in data set [1] was above 225 µM. The half-inhibitory concentration (IC50) in the data set on A2780 is above 5000 nM; in data set [2], 60 nM.
The matching figures for `CC(=O)N1CCN(C(=O)N2Cc3c(NC(=O)c4ccc(F)cc4)n[nH]c3C2(C)C)CC1`: above 225 µM, above 10000 nM and 540 nM.
The matching figures for `CN1CCC(C(=O)N2Cc3c(NC(=O)c4cccs4)n[nH]c3C2(C)C)CC1`: 155 µM (≈ 60.1 µg/mL), 30 nM and 10 nM.
Regarding `CN1CCC(C(=O)N2Cc3c(NC(=O)c4cc(F)cc(F)c4)n[nH]c3C2(C)C)CC1`, in data set [1], the solubility is above 225 µM. Besides, the IC50 in the data set with A2780 came out at 130 nM; in data set [2], 16 nM.
For `CN1CCC(C(=O)N2Cc3c(NC(=O)c4cccc(F)c4)n[nH]c3C2(C)C)CC1`, in that order: above 225 µM, 200 nM and 14 nM.
On to `CC(C)(C)C(=O)N1Cc2c(NC(=O)c3ccc(F)cc3)n[nH]c2C1(C)C`, for which the concentration in solution in data set [1] (solubility) was 235 µM (≈ 84.2 µg/mL). In the data set on A2780, this compound came in with an IC50 of 270 nM.
`CN1CCC(C(=O)N2Cc3c(NC(=O)c4ccsc4)n[nH]c3C2(C)C)CC1` came in with a solubility in data set [1] above 225 µM. The IC50 with A2780 stood at 140 nM; in data set [2] it was 5 nM.
Turning to `CN1CCC(C(=O)N2Cc3c(NC(=O)c4ccc(F)c(F)c4)n[nH]c3C2(C)C)CC1`, the solubility in data set [1] is above 225 µM. In addition, the IC50 in the data set on A2780 amounted to 100 nM; in data set [2], 14 nM.
`CN1CCC(C(=O)N2Cc3c(NC(=O)c4ccc(Cl)cc4)n[nH]c3C2(C)C)CC1` returned a solubility in data set [1] above 225 µM. The figures for the IC50 (in the data set with A2780; in data set [2]) were 120 nM and 15 nM, respectively.
Regarding `CC(=O)N1CCC(C(=O)N2Cc3c(NC(=O)c4ccc(F)cc4)n[nH]c3C2(C)C)CC1`, in data set [1], the solubility is 204 µM (≈ 87.2 µg/mL). Besides, the IC50 in the data set on A2780 was above 10000 nM; in data set [2] it was 4800 nM.
The matching figures for `CN(C)CC(=O)Nc1n[nH]c2c1CN(C(=O)C(C)(C)C)C2(C)C`: above 225 µM, 580 nM and 77 nM.
In the case of `CC(C)CC(=O)Nc1n[nH]c2c1CN(C(=O)C1CCN(C3CC3)CC1)C2(C)C`, in data set [1], the solubility was above 225 µM. Besides, the IC50 is 320 nM with A2780 and 24 nM in data set [2].
For `CC(C)(C)C(=O)N1Cc2c(NC(=O)c3ccncc3)n[nH]c2C1(C)C`, in that order: 205 µM (≈ 70 µg/mL), 110 nM and 49 nM.
For `CN1CCC(C(=O)N2Cc3c(NC(=O)c4ccccc4)n[nH]c3C2(C)C)CC1`, in that order: above 225 µM, 160 nM and 23 nM.
Turning to `OC[C@H]1O[C@H](OC[C@H]2O[C@@H](O[C@]3(CO)O[C@H](CO)[C@@H](O)[C@@H]3O)[C@H](O)[C@@H](O)[C@@H]2O)[C@H](O)[C@@H](O)[C@H]1O.OC[C@H]1O[C@H](OC[C@H]2O[C@H](O[C@]3(CO)O[C@H](CO)[C@@H](O)[C@@H]3O)[C@H](O)[C@@H](O)[C@@H]2O)[C@H](O)[C@@H](O)[C@H]1O`, the concentration in solution in data set [1] (solubility) was 200 µM. In addition, the IC50 in the data set on A2780 worked out at 60 nM; in data set [2], 16 nM.
The matching figures for `CCN1CCC(C(=O)N2Cc3c(NC(=O)c4ccc(F)cc4)n[nH]c3C2(C)C)CC1`: above 225 µM, 290 nM and 30 nM.
The matching figures for `CC1(C)c2[nH]nc(NC(=O)c3ccc(F)cc3)c2CN1C(=O)C1CCNCC1`: 204 µM (≈ 78.6 µg/mL), 650 nM and 30 nM.
For `CN1CCC(C(=O)N2Cc3c(NC(=O)c4ccc5ccccc5c4)n[nH]c3C2(C)C)CC1`, in that order: 219 µM (≈ 94.5 µg/mL), 270 nM and 27 nM.
On to `CCN1CCC(C(=O)N2Cc3c(NC(=O)CC(C)C)n[nH]c3C2(C)C)CC1`, for which, in data set [1], the solubility is above 225 µM. The concentration for half-maximal inhibition (IC50) with A2780 was 410 nM; in data set [2], 14 nM.
With `CC1(C)c2[nH]nc(NC(=O)c3ccc(F)cc3)c2CN1C(=O)C1CCN(C2CC2)CC1`, the solubility in data set [1] was above 225 µM. The values for the IC50 (in the data set with A2780; in data set [2]) were 380 nM and 68 nM, respectively.
The matching figures for `CN1CCN(C(=O)N2Cc3c(NC(=O)c4ccc(F)cc4)n[nH]c3C2(C)C)CC1`: above 225 µM, 180 nM and 46 nM.
In turn, `CN1CCC(C(=O)N2Cc3c(NC(=O)Nc4cccc(F)c4)n[nH]c3C2(C)C)CC1` came in with a solubility in data set [1] above 225 µM. The IC50 worked out at 350 nM in the data set on A2780 and 10 nM in data set [2].
For `CCCNC(=O)Nc1n[nH]c2c1CN(C(=O)C1CCN(C)CC1)C2(C)C`, the solubility in data set [1] was above 225 µM. In addition, the half-inhibitory concentration (IC50) with A2780 was 650 nM; in data set [2] it was 11 nM.
For `CN1CCC(C(=O)N2Cc3c(NC(=O)c4ccc(C(F)(F)F)cc4)n[nH]c3C2(C)C)CC1`, in that order: 191 µM (≈ 85.9 µg/mL), 60 nM and 26 nM.
For `CC(C)(C)C(=O)N1Cc2c(NC(=O)C3CCNCC3)n[nH]c2C1(C)C`, in data set [1], the solubility is above 225 µM. Also, the half-maximal inhibitory concentration (IC50) in the data set on A2780 came out at 650 nM; in data set [2], 169 nM.
Turning to `CN1CCC(C(=O)N2Cc3c(NC(=O)C4CCC4)n[nH]c3C2(C)C)CC1`, the solubility in data set [1] is above 225 µM. In addition, the IC50 amounted to 140 nM with A2780 and 9 nM in data set [2].
For `CN1CCC(C(=O)N2Cc3c(NC(=O)c4ccncc4)n[nH]c3C2(C)C)CC1`, in that order: above 225 µM, 500 nM and 25 nM.
The matching figures for `CN1CCC(C(=O)Nc2n[nH]c3c2CN(C(=O)C(C)(C)C)C3(C)C)CC1`: above 225 µM, 350 nM and 214 nM.
For `CC(C)(C)C(=O)N1Cc2c(NC(=O)c3cccnc3)n[nH]c2C1(C)C`, in that order: 207 µM (≈ 70.7 µg/mL), 690 nM and 50 nM.
The compound `CN1CCC(C(=O)N2Cc3c(NC(=O)c4ccc(F)cc4)n[nH]c3C2(C)C)CC1` showed a solubility in data set [1] above 225 µM. The IC50 in the data set with A2780 is 120 nM; in data set [2], 23 nM.
In the case of `CN1CCC(C(=O)N2Cc3c(NC(=O)c4ccco4)n[nH]c3C2(C)C)CC1`, the solubility in data set [1] was above 225 µM. Besides, the values for the IC50 (in the data set with A2780; in data set [2]) were above 5000 nM and 33 nM, respectively.
In data set [1], `CC1(C)c2[nH]nc(NC(=O)c3ccc(F)cc3)c2CN1C(=O)N1CCN(c2ccccc2)CC1` showed a solubility of 55 µM (≈ 25.4 µg/mL). Moreover, in data set [2], it took 3500 nM to reach half-maximal inhibition (IC50).

These data come from ChEMBL document CHEMBL1157586 (Bioorg Med Chem, 2010).
